In patent US7544698B2, “Indoles and benzoimidazoles as modulators of the histamine H4 receptor” (Janssen Pharmaceutica, N.V., priority 2006, dated 2009):
Counter-ions that a name gives are not always drawn.

The compounds below were run against T1, human histamine H4 receptor (Homo sapiens, UniProt Q9H3N8) (assay: Binding Assay on Recombinant Human Histamine H4 Receptor (3H-histamine competition, membranes of transfected SK-N-MC or COS7 cells)). Conditions: competition with 3H-histamine (5 nM ligand, KD 5 nM), Cheng-Prusoff; mean of results; > = solubility limit or highest concentration tested.
T1 construct: expressed in transfected cells; host or cells: SK-N-MC cells or COS7 cells, transiently transfected with pH4R; cell membranes
Experimental: Binding Assay on Recombinant Human Histamine H4 Receptor
SK-N-MC cells or COS7 cells were transiently transfected with pH4R and grown in 150 cm^2 tissue culture dishes. Cells were washed with saline solution, scraped with a cell scraper and collected by centrifugation (1000 rpm, 5 min). Cell membranes were prepared by homogenization of the cell pellet in 20 mM Tris-HCl with a polytron tissue homogenizer for 10 sec at high speed. Homogenate was centrifuged at 1000 rpm for 5 min at 4° C. The supernatant was then collected and centrifuged at 20,000×g for 25 min at 4° C. The final pellet was resuspended in 50 mM Tris-HCl. […] Incubation occurred at room temperature for 45 min. Membranes were harvested by rapid filtration over Whatman GF/C filters and washed 4 times with ice-cold 50 mM Tris HCl. Filters were then dried, mixed with scintillant and counted for radioactivity. SK-N-MC or COS7 cells expressing human histamine H4 receptor were used to measure the affinity of binding of other compounds and their ability to displace ^3H-ligand binding by incubating the above-described reaction in the presence of various concentrations of inhibitor or compound to be tested.

Structure (SMILES) | Ki [nM]
O=C(c1cc2ccccc2[nH]1)N1C[C@H]2CCCN[C@H]2C1 (relative stereo) [Example 5, cis-(1H-Indol-2-yl)-(octahydro-pyrrolo[3,4-b]pyridin-6-yl)-methanone trifluoroacetic acid salt] | 40
O=C(c1nc2cc(Cl)ccc2[nH]1)N1C[C@H]2CCCN[C@H]2C1 (relative stereo) [Example 7, cis-(5-Chloro-1H-benzoimidazol-2-yl)-(octahydro-pyrrolo[3,4-b]pyridin-6-yl)-methanone] | 20
O=C(c1cc2cc(Cl)ccc2[nH]1)N1C[C@H]2CCCN[C@H]2C1 (relative stereo) [Example 10, cis-(5-Chloro-1H-indol-2-yl)-(octahydro-pyrrolo[3,4-b]pyridin-6-yl)-methanone] | 8
O=C(c1cc2cc(F)ccc2[nH]1)N1C[C@H]2CCCN[C@H]2C1 (relative stereo) [Example 13, cis-(5-Fluoro-1H-indol-2-yl)-(octahydro-pyrrolo[3,4-b]pyridin-6-yl)-methanone hydrochloride salt] | 28
O=C(c1cc2ccccc2[nH]1)N1C[C@@H]2C[C@H]1CN2 [Example 1, (S,S)-(2,5-Diaza-bicyclo[2.2.1]hept-2-yl)-(1H-indol-2-yl)-methanone hydrochloride salt] | 1110
CN1C[C@@H]2C[C@H]1CN2C(=O)c1cc2ccccc2[nH]1 [Example 2, (S,S)-(1H-Indol-2-yl)-(5-methyl-2,5-diaza-bicyclo[2.2.1]hept-2-yl)-methanone] | 3200
CNC1CCN(C(=O)c2cc3ccccc3[nH]2)C1 (centres unmarked) [Example 3, (1H-Indol-2-yl)-(3-methylamino-pyrrolidin-1-yl)-methanone trifluoroacetic acid salt] | 430
CN[C@@H]1CCN(C(=O)c2cc3ccccc3[nH]2)C1 [Example 4, (R)-(1H-Indol-2-yl)-(3-methylamino-pyrrolidin-1-yl)-methanone hydrochloride salt] | 160
O=C(c1cc2ccccc2[nH]1)N1C[C@@H]2CCCN[C@@H]2C1 [Example 6, (S,S)-(1H-Indol-2-yl)-(octahydro-pyrrolo[3,4-b]pyridin-6-yl)-methanone trifluoroacetic acid salt] | > 10000
CN[C@@H]1CCN(C(=O)c2cc3cc(Cl)ccc3[nH]2)C1 [Example 8, (R)-(5-Chloro-1H-indol-2-yl)-(3-methylamino-pyrrolidin-1-yl)-methanone] | 53
CN[C@H]1CCN(C(=O)c2cc3cc(Cl)ccc3[nH]2)C1 [Example 9, (S)-(5-Chloro-1H-indol-2-yl)-(3-methylamino-pyrrolidin-1-yl)-methanone] | 540
O=C(c1cc2cc(Cl)ccc2[nH]1)N1C[C@H]2CCCN[C@H]2C1 [Example 11, (R,R)-(5-Chloro-1H-indol-2-yl)-(octahydro-pyrrolo[3,4-b]pyridin-6-yl)-methanone hydrochloride salt] | 27
O=C(c1cc2cc(Cl)ccc2[nH]1)N1C[C@@H]2CCCN[C@@H]2C1 [Example 12, (S,S)-(5-Chloro-1H-indol-2-yl)-(octahydro-pyrrolo[3,4-b]pyridin-6-yl)-methanone hydrochloride salt] | > 10000
O=C(c1cc2cc(Cl)ccc2[nH]1)N1C[C@@H]2CCCN[C@@H]2C1 [Example 12A, (S,S)-(5-Chloro-1H-indol-2-yl)-(octahydro-pyrrolo[3,4-b]pyridin-6-yl)-methanone] | 180

The next lines start with the values.

Ki [nM] | Structure (SMILES)
> 10000 | O=C(c1cc2cccc([N+](=O)[O-])c2[nH]1)N1C[C@H]2CCCN[C@H]2C1 (relative stereo) [Example 14, cis-(7-Nitro-1H-indol-2-yl)-(octahydro-pyrrolo[3,4-b]pyridin-6-yl)-methanone hydrochloride salt]
220 | O=C(c1cc2c(F)cc(F)cc2[nH]1)N1C[C@H]2CCCN[C@H]2C1 (relative stereo) [Example 15, cis-(4,6-Difluoro-1H-indol-2-yl)-(octahydro-pyrrolo[3,4-b]pyridin-6-yl)-methanone hydrochloride salt]
560 | CN1CCC[C@@H]2CN(C(=O)c3cc4ccccc4[nH]3)C[C@@H]21 (relative stereo) [Example 27, cis-(1H-Indol-2-yl)-(1-methyl-octahydro-pyrrolo[3,4-b]pyridin-6-yl)-methanone]
240 | CN1CCC[C@@H]2CN(C(=O)c3cc4cc(Cl)ccc4[nH]3)C[C@@H]21 (relative stereo) [Example 28, cis-(5-Chloro-1H-indol-2-yl)-(1-methyl-octahydro-pyrrolo[3,4-b]pyridin-6-yl)-methanone]
41 | Cc1ccc2[nH]c(C(=O)N3C[C@H]4CCCN[C@H]4C3)cc2c1 (relative stereo) [Example 29, cis-(5-Methyl-1H-indol-2-yl)-(octahydro-pyrrolo[3,4-b]pyridin-6-yl)-methanone hydrochloride salt]
680 | CN[C@H]1CCN(C(=O)c2cc3cc(F)ccc3[nH]2)C1 [Example 16, (S)-(5-Fluoro-1H-indol-2-yl)-(3-methylamino-pyrrolidin-1-yl)-methanone]
38 | CN[C@@H]1CCN(C(=O)c2cc3cc(F)ccc3[nH]2)C1 [Example 17, (R)-(5-Fluoro-1H-indol-2-yl)-(3-methylamino-pyrrolidin-1-yl)-methanone]
> 10000 | CN[C@H]1CCN(C(=O)c2cc3cccc(C)c3[nH]2)C1 [Example 18, (S)-(3-Methylamino-pyrrolidin-1-yl)-(7-methyl-1H-indol-2-yl)-methanone]
150 | CN[C@@H]1CCN(C(=O)c2cc3cccc(C)c3[nH]2)C1 [Example 19, (R)-(3-Methylamino-pyrrolidin-1-yl)-(7-methyl-1H-indol-2-yl)-methanone]
> 10000 | CN[C@H]1CCN(C(=O)c2cc3cc(C)ccc3[nH]2)C1 [Example 20, (S)-(3-Methylamino-pyrrolidin-1-yl)-(5-methyl-1H-indol-2-yl)-methanone]
280 | CN[C@@H]1CCN(C(=O)c2cc3cc(C)ccc3[nH]2)C1 [Example 21, (R)-(3-Methylamino-pyrrolidin-1-yl)-(5-methyl-1H-indol-2-yl)-methanone]
> 5000 | CN[C@H]1CCN(C(=O)c2cc3c(F)cc(F)cc3[nH]2)C1 [Example 22, (S)-(4,6-Difluoro-1H-indol-2-yl)-(3-methylamino-pyrrolidin-1-yl)-methanone]
680 | CN[C@@H]1CCN(C(=O)c2cc3c(F)cc(F)cc3[nH]2)C1 [Example 23, (R)-(4,6-Difluoro-1H-indol-2-yl)-(3-methylamino-pyrrolidin-1-yl)-methanone]
190 | NC1CCN(C(=O)c2cc3cc(Cl)ccc3[nH]2)C1 (centres unmarked) [Example 24, (3-Amino-pyrrolidin-1-yl)-(5-chloro-1H-indol-2-yl)-methanone hydrochloride salt]
1160 | CN(C)C1CCN(C(=O)c2cc3cc(Cl)ccc3[nH]2)C1 (centres unmarked) [Example 25, (5-Chloro-1H-indol-2-yl)-(3-dimethylamino-pyrrolidin-1-yl)-methanone]
9000 | CN(C)C1CCN(C(=O)c2cc3ccccc3[nH]2)C1 (centres unmarked) [Example 26, (3-Dimethylamino-pyrrolidin-1-yl)-(1H-indol-2-yl)-methanone]
2000 | CNC1CCN(C(=O)c2nc3ccccc3[nH]2)C1 (centres unmarked) [Example 30, (1H-Benzoimidazol-2-yl)-(3-methylamino-pyrrolidin-1-yl)-methanone hydrochloride salt]
8200 | CN(C)C1CCN(C(=O)c2nc3ccccc3[nH]2)C1 (centres unmarked) [Example 31, (1H-Benzoimidazol-2-yl)-(3-dimethylamino-pyrrolidin-1-yl)-methanone]
